Here are results for three molecules from patent US20110060021A1 (priority 2009, published 2011).

Data set [1] relates to recombinant human HDAC1-4 and HDAC6-9. The experiment in a line: Histone deacetylase inhibition, two-step fluorogenic assay. It is filed as biochemical. As to conditions: reduced form of the compound.
Experimental: TCEP, tris(2-carboxyethyl)phosphine hydrocloride used as a reducing agent.
The experiments included HDACs falling in human class I (HDACs 1, 2, 3 and 8), as well as human class II (HDACs 4, 6, 7 and 9), and the activities were determined in a two-step fluorogenic assay by the method described in (Wegener et al. Analytical biochemistry (2003) 321:202-208). All HDAC dose-response curves were bundled for each compound individually in the native/oxidized and the reduced forms. The activity of each enzyme was normalized separately. For determination of the inhibitory effect, IC50 values (in μM concentrations) were obtained through a non-linear four-parameter fit.
Data set [2] has as its system NCI-60 cancer cell lines. The experiment in a line: NCI-60 single-dose assay. It is filed as cell-based, human. The note with it: single dose 10 μM.
Data set [3] has as its system breast cancer cell line (BT-549). Kind of data set: NCI-60 assay, BT-549 cell line. It is filed as cell-based, human.
For data set [4], the system named is NCI-60 cancer cell lines. The note with it: for number of cancer cell lines completely killed / number of cancer cell lines whose growth was totally inhibited / TGI50, median concentration for total growth inhibition / GI50 / CC50: five-dose assay; for number of cancer cell lines completely killed: at median LC50 or lower; for number of cancer cell lines whose growth was totally inhibited: at median TGI50 or lower; for TGI50, median concentration for total growth inhibition: 29 (A) / 28 (B) cell lines; for GI50: read-out: GI50, median concentration, all but three cancer cell lines (HCT-15, NCI/ADR-RES, CAKI-1); for CC50: read-out: LC50, median concentration, 17 (A) / 20 (B) cell lines completely killed.

Data set [5] has as its system CNS cancer cell line (U251). The experiment in a line: NCI-60 assay, U251 cell line. Format: cell-based, human.

For the molecule `CC=C1NC(=O)C(CS)NC(=O)C(C(C)C)NC(=O)CC(C=CCCS)OC(=O)C(C(C)C)NC1=O` (stereo not drawn) [reduced form of FK228], the “HDAC inhibition ranking (order of inhibition)” value in data set [1] was “HDAC2≧HDAC3≧HDAC1>HDAC8>HDAC4≧HDAC6>HDAC9≧HDAC7”.
Take `CC[C@H](C)[C@H]1NC(=O)[C@H]2CSSCC/C=C/[C@H](CC(=O)N[C@H](CCSC)C(=O)N2)OC(=O)C[C@@H]1O` [thailandepsin A]: in the data set on NCI-60 cancer cell lines [2], the “inhibitory activity across the 60 cancer cell lines” value is on record as “consistently inhibitory to most but not all 60 cancer cell lines” and the “number of cell lines inhibited at the mean growth percent or more” value came out at 28 cell lines. Moreover, in data set [3], the “sensitivity of BT-549 breast cancer cell line” value is given as “very sensitive”. For the same molecule, the “cancer cell lines inhibited in five-dose assay” value with NCI-60 cancer cell lines [4] (exceptions: HCT-15 colon, NCI/ADR-RES ovarian, CAKI-1 renal) is given as “inhibitory to all but three cancer cell lines”. Also, in the data set on NCI-60 cancer cell lines [4], the “number of cancer cell lines completely killed” value is on record as 17 cancer cell lines; the “number of cancer cell lines whose growth was totally inhibited” value is given as 29 cancer cell lines; the “TGI50, median concentration for total growth inhibition” value is on record as not above 125.9 nM; the GI50 is not above 5.6 nM. Also, the CC50 in the data set with NCI-60 cancer cell lines [4] was not above 3890 nM. For the same molecule, the “relative potency (all parameters)” value in the data set with NCI-60 cancer cell lines [4] (thailandepsin A vs thailandepsin B) was “twice as potent as thailandepsin B”. The “sensitivity of U251 CNS cancer cell line” value in data set [5] was “very sensitive”.
On to `CCCC[C@H]1NC(=O)C[C@H]2/C=C/CCSSC[C@@H](NC1=O)C(=O)N[C@H]([C@@H](C)CC)[C@@H](O)CC(=O)O2` [thailandepsin B], for which, in the data set on NCI-60 cancer cell lines [2], the “inhibitory activity across the 60 cancer cell lines” value is on record as “consistently inhibitory to most but not all 60 cancer cell lines” and the “number of cell lines inhibited at the mean growth percent or more” value was 30 cell lines. Further, the “sensitivity of BT-549 breast cancer cell line” value in data set [3] is recorded as “very sensitive”. Moreover, in the data set with NCI-60 cancer cell lines [4], the “number of cancer cell lines completely killed” value was found to be 20 cancer cell lines; the “number of cancer cell lines whose growth was totally inhibited” value is recorded as 28 cancer cell lines; the “TGI50, median concentration for total growth inhibition” value is not above 256.4 nM; the GI50 is not above 11.7 nM. The CC50 with NCI-60 cancer cell lines [4] is not above 6920 nM. The “sensitivity of U251 CNS cancer cell line” value in data set [5] is “very sensitive”.
